Experimental findings from patent US9708251B2, “Unsaturated fatty alcohol alkoxylates from natural oil metathesis” (Stepan Company, priority 2012, dated 2017) are described below.

Data set [1] is described as follows: Surfactant phase behavior study (cross-polarized microscopy). The settings on record: room temperature. Format: physicochemical. On the procedure: Phase behavior is observed using an Olympus BH-2 cross-polarized microscope at 100-400× and room temperature (20° C. to 22° C.). The inventive monounsaturated alcohol ethoxylates are compared with their saturated analogs.
Samples are prepared by diluting the most concentrated product gradually with deionized water. When the surfactant concentration approaches a phase transition, the concentration is varied at 2-4% intervals to estimate the phase boundary. The actives level reported in Table 4 for each phase boundary is within ±5% of the true boundary.
Samples are loaded between a microscope slide and cover glass and are allowed to equilibrate before observation. Microscopic texture is analyzed and used to determine the phase. For some samples, an AR 2000 rheometer (TA Instruments) is used to measure viscosity at 25° C. to further verify phase behavior.

The nature of data set [2]: Agrichemical solvent analysis: active solubility. It is filed as physicochemical. The settings on record: room temperature. Here is the method:
Solvency strength of potential agrichemical solvents is evaluated by identifying the solubility level of three standard pesticides in the solvent by weight percent: 2,4-D acid, imidacloprid, and tebuconazole. […] The active material is also accurately weighed before addition. Initial amounts of active material are approximately: 2,4-D: 0.3 g; imidacloprid: 0.02 g; tebuconazole: 0.3 g. Solvent and pesticide active are combined, allowed to mix for 1 h at room temperature, and then inspected for the presence of undissolved active material. Additional active material is added in appropriately small increments until it no longer dissolves completely. This mixture is then stirred for 24 h at room temperature, and if the active has completely dissolved, additional active ingredient is added and the mixture is stirred another 24 h at room temperature. The percent solubility is recorded, and performance is compared with that of a standard agricultural solvent.

For data set [3] the following is noted: 0.4 wt. % active, 342 ppm hard water.
Description: Surfactant solution (100 mL) is carefully transferred to a stainless-steel mixing cup, then mixed at high speed (27K rpm) using a Hamilton Beach mixer for 10 s. The contents are quickly poured into a 100-mL graduated cylinder to the 100-mL mark, and a stopwatch is immediately started. The amount of liquid settling in the cylinder is recorded every 15 s for 4 min. Less liquid drained indicates greater foam stability.
A short description of data set [4]: Emulsion stability testing of nonionic emulsifiers, Hallcomid solvent series. It is filed as physicochemical. On the set-up: key: C = creamy; CO = creamy oil; O = oil; GC = gritty cream; NS = no separation; OC = oily cream. The settings on record: Bifenthrin 240 g/L in Hallcomid M-8-10, 34 ppm water. On the procedure: (§1) Nonionic samples contain a low amount of water (<1%) and are prepared as emulsifiable concentrates with three pesticides using two different solvent systems. In the aromatic solvent series, the nonionic sample replaces Toximul® 8240 (castor oil ethoxylate, 36 POE, Stepan), and in the Hallcomid™ (N,N-dimethylcaprylamide/N,N-dimethylcapramide, Stepan) solvent series, the nonionic sample replaces Ninex® MT-630F.
(§2) Hallcomid Solvent Series.
(§3) Sample preparation: The surfactants are combined and stirred until homogeneous, with the nonionic sample melted if needed prior to combination. Controls 1-3 are made by using Ninex MT-630F in the amounts indicated instead of the nonionic sample.
(§4) Emulsion Stability Testing
(§5) A Mohr pipette is used to feed pesticide/surfactant concentrates to each cylinder.

Test in data set [5]: as above
Also noted: key to 24 h separation, appearance / 1 h separation, appearance / 1 h separation, amount: C = creamy; CO = creamy oil; O = oil; GC = gritty cream; NS = no separation; OC = oily cream; key to Spon. (spontaneity): G = good; F = fair; P = poor. It is filed as physicochemical. On the procedure:
as §1, §2, §3, §4, §5

Data set [6] in a line: Emulsion stability testing of nonionic emulsifiers, aromatic solvent series. It is filed as physicochemical. On the set-up: key to 24 h separation, appearance / 1 h separation, appearance / 1 h separation, amount: C = creamy; CO = creamy oil; O = oil; GC = gritty cream; NS = no separation; OC = oily cream; key to Spon. (spontaneity): G = good; F = fair; P = poor. Here is the method:
as §1
Sample preparation: Ninate® 60E (calcium alkylbenzenesulfonate, Stepan) and the test sample are stirred until homogeneous. […] Controls 1-3 are made by using Toximul 8240 in the amounts indicated instead of the nonionic sample.
Formulations: • 1. Bifenthrin, 240 g/L (2.99 g), Aromatic 100 (ExxonMobil, 8.05 g), Ninate 60E (0.38 g), and nonionic sample or Toximul 8240 (0.58 g). • 2. 2,4-D ester, 480 g/L (8.90 g), Exxsol® D-110 (ExxonMobil, 2.50 g), Ninate 60E (0.36 g), and nonionic sample or Toximul 8240 (0.24 g). • 3. Tebuconazole, 360 g/L (4.45 g), N-methyl-2-pyrrolidone (6.35 g), Ninate 60E (0.48 g), nonionic sample or Toximul 8240 (0.72 g).
as §4, §5

Where [7] appears, read: 2,4-D diester 480 g/L in Hallcomid M-8-10, 34 ppm water.
Where [8] appears, read: 2,4-D diester 480 g/L in Hallcomid M-8-10, 1000 ppm water.
The mark [9] stands for this setting: Bifenthrin 240 g/L in Hallcomid M-8-10, 34 ppm water.
Where [10] appears, read: Bifenthrin 240 g/L in Hallcomid M-8-10, 1000 ppm water.
Where [11] appears, read: Tebuconazole 360 g/L in Hallcomid M-8-10, 34 ppm water.
The mark [12] stands for this setting: Tebuconazole 360 g/L in Hallcomid M-8-10, 1000 ppm water.
[13] abbreviates: 2,4-D ester 480 g/L in Exxsol D-110, 34 ppm water.
[14] abbreviates: 2,4-D ester 480 g/L in Exxsol D-110, 1000 ppm water.
[15] abbreviates: Bifenthrin 240 g/L in Aromatic 100, 34 ppm water.
[16] abbreviates: Bifenthrin 240 g/L in Aromatic 100, 1000 ppm water.
Where [17] appears, read: Tebuconazole 360 g/L in N-methyl-2-pyrrolidone, 34 ppm water.
[18] abbreviates: Tebuconazole 360 g/L in N-methyl-2-pyrrolidone, 1000 ppm water.

Consider `CCCCCCCCCCCCOCCOCCOCCO` [sat. analog of A12-7], for which the “combined isotropic phases (clear and opaque), share of the total” value in data set [1] is recorded as “about 38%”. Moreover, in data set [1] (in deionized water), the “Isotropic Clear phase region” value is 90-100 % Actives Level, the “Isotropic Opaque phase region” value is recorded as 0-28 % Actives Level and the Lamellar phase region is 28-90 % Actives Level.
For `CCCCCCCCCCOCCOCCOCCOCCOCCOCCOCCOCCOCCOCCOCCOCCOCCOCCOCCO` [sat. analog of A10-16], in data set [1] (in deionized water), the Cubic phase region was 37-55 % Actives Level and the Paste phase region is 93-100 % Actives Level.
Take `CCCCCCCCCCOCCOCCOCCO` [sat. analog of A10-7]: the “combined isotropic phases (clear and opaque), share of the total” value in data set [1] is “about 38%”. Further, in data set [1] (in deionized water), the “Isotropic Clear phase region” value is 90-100 % Actives Level, the “Isotropic Opaque phase region” value was 0-28 % Actives Level and the Lamellar phase region is 28-90 % Actives Level.
Consider `CCCCCCCCCCCCOCCOCCOCCOCCOCCOCCOCCOCCOCCOCCOCCOCCOCCOCCOCCO` [sat. analog of A12-16], for which, in data set [1] (in deionized water), the Cubic phase region is given as 28-50 % Actives Level, the Hexagonal phase region was 50-73 % Actives Level and the Paste phase region is recorded as 93-100 % Actives Level.
Turning to `CN1CCCC1=O` [N-methyl-2-pyrrolidone, reference compound], in data set [2], the “solubility of 2,4-D Acid in the solvent” value is given as 39.5 weight percent, the “solubility of Imidacloprid in the solvent” value amounted to 29.3 weight percent and the “solubility of Tebuconazole in the solvent” value stood at 62.2 weight percent.
As to `CCCCCCCCCCOCCOCCOCCOCCOCCO` [sat. analog of A10-10], in data set [1] (in deionized water), the Lamellar phase region is given as 55-80 % Actives Level.
For the molecule `CCCCCCCCCCCCOCCOCCOCCOCCOCCO` [sat. analog of A12-10], in data set [1] (in deionized water), the Lamellar phase region was 40-83 % Actives Level and the Lamellar/Isotropic phase region was 30-40 % Actives Level.
Consider “ammonium alkyl ether sulfate [Control 3, reference compound]”, for which, in data set [3], the “Liquid volume at drain time 0.5 min” value was determined as 0.25 mL, the “Liquid volume at drain time 1.0 min” value stood at 1.00 mL, the “Liquid volume at drain time 1.5 min” value is 2.00 mL and the “Liquid volume at drain time 2.0 min” value was found to be 3.00 mL. Further, in data set [3], the “Liquid volume at drain time 2.5 min” value amounted to 4.00 mL, the “Liquid volume at drain time 3.0 min” value is recorded as 5.25 mL, the “Liquid volume at drain time 3.5 min” value was 6.50 mL and the “Liquid volume at drain time 4.0 min” value amounted to 7.50 mL.
As for `C=CCCCCCCCCOCCO` [A10-4], the “24 h separation, amount” value is reported as “NS” in data set [4]; 9.5 mL in data set [5] (setting [7]); 8 mL in data set [5] (setting [8]); 3.5 O, 3 CO in data set [5] (setting [10]); 6.5 mL in data set [5] (setting [11]); 5.8 mL in data set [5] (setting [12]). Moreover, the “24 h separation, amount” value was 2 O, 1 CO, 2 C in data set [6] (setting [13]); 4 mL in data set [6] (setting [14]); 3 O, 3 CO in data set [6] (setting [15]); 6 mL in data set [6] (setting [16]); 3 mL in data set [6] (setting [17]); 4 mL in data set [6] (setting [18]). For the same molecule, the “1 h separation, amount” value in data set [5] (setting [7]) is 6 mL; in data set [5] (setting [8]), 6.5 mL; in data set [5] (setting [9]), “NS”; in data set [5] (setting [10]), “Tr. GC, 12 C”; in data set [5] (setting [11]), 3 mL; in data set [5] (setting [12]), 4 mL. Also, the “1 h separation, amount” value in data set [6] (setting [13]) is 4.5 mL; in data set [6] (setting [14]), 3.8 mL; in data set [6] (setting [15]) it was 7.5 mL; in data set [6] (setting [16]) it was 6 mL; in data set [6] (setting [17]) it was 2 mL; in data set [6] (setting [18]), 3 mL. The “1 h separation, appearance” value in data set [5] (setting [7]) is given as “C”; in data set [5] (setting [8]), “C”; in data set [5] (setting [11]) it was “C”; in data set [5] (setting [12]) it was “C”; in data set [6] (setting [13]) it was “CO”; in data set [6] (setting [14]), “O”. Moreover, the “1 h separation, appearance” value in data set [6] (setting [15]) is reported as “CO”; in data set [6] (setting [16]) it was “O”; in data set [6] (setting [17]) it was “GC”; in data set [6] (setting [18]) it was “GC”. The “24 h separation, appearance” value in data set [5] (setting [7]) is reported as “C”; in data set [5] (setting [8]), “C”; in data set [5] (setting [11]), “C”; in data set [5] (setting [12]), “C”; in data set [6] (setting [14]), “O”; in data set [6] (setting [16]), “O”. Moreover, the “24 h separation, appearance” value in data set [6] (setting [17]) and in data set [6] (setting [18]) was “GC” each time. Besides, the “Spon. (spontaneity)” value in data set [5] (setting [7]), in data set [5] (setting [8]), in data set [5] (setting [9]), in data set [5] (setting [10]), in data set [5] (setting [11]) and in data set [5] (setting [12]) was “F” throughout. Further, the “Spon. (spontaneity)” value in data set [6] (setting [13]), in data set [6] (setting [14]), in data set [6] (setting [15]), in data set [6] (setting [16]), in data set [6] (setting [17]) and in data set [6] (setting [18]) was “P” throughout.
Take `CCCCCCCCCCCCOCCOCCOCCOCCOCCOCCOCCO` [sat. analog of A12-13]: in data set [1] (in deionized water), the Hexagonal phase region is 30-67 % Actives Level and the Lamellar phase region is 67-90 % Actives Level.
With `CCCCCCCCCC(=O)N(C)C` [N,N-dimethylcapramide, reference compound], in data set [2], the “solubility of 2,4-D Acid in the solvent” value turned out to be 45.4 weight percent, the “solubility of Imidacloprid in the solvent” value is recorded as 4.2 weight percent and the “solubility of Tebuconazole in the solvent” value came out at 38.8 weight percent.
`CCCCCCCCCCOCCOCCOCCOCCOCCOCCOCCO` [sat. analog of A10-13]: in data set [1] (in deionized water), the Lamellar phase region is 43-60 % Actives Level.
